Measurements taken from BigSolDB 2.1.

Compound: CC(C)C(=O)Nc1ccc([N+](=O)[O-])c(C(F)(F)F)c1
- solubility (mole fraction) (in 1,4-dioxane, 283.15 K): 0.12
- solubility (mole fraction) (in 1,4-dioxane, 288.15 K): 0.139
- solubility (mole fraction) (in 1,4-dioxane, 293.15 K): 0.16
- solubility (mole fraction) (in 1,4-dioxane, 298.15 K): 0.184
- solubility (mole fraction) (in 1,4-dioxane, 303.15 K): 0.21
- solubility (mole fraction) (in 1,4-dioxane, 308.15 K): 0.239
- solubility (mole fraction) (in 1,4-dioxane, 313.15 K): 0.272
- solubility (mole fraction) (in 1,4-dioxane, 318.15 K): 0.307
- solubility (mole fraction) (in 1,4-dioxane, 323.15 K): 0.338
- solubility (mole fraction) (in acetonitrile, 278.15 K): 0.0592
- solubility (mole fraction) (in acetonitrile, 283.15 K): 0.0749
- solubility (mole fraction) (in acetonitrile, 288.15 K): 0.0939
- solubility (mole fraction) (in acetonitrile, 293.15 K): 0.115
- solubility (mole fraction) (in acetonitrile, 298.15 K): 0.144
- solubility (mole fraction) (in acetonitrile, 303.15 K): 0.177
- solubility (mole fraction) (in acetonitrile, 308.15 K): 0.217
- solubility (mole fraction) (in acetonitrile, 313.15 K): 0.262
- solubility (mole fraction) (in acetonitrile, 318.15 K): 0.314
- solubility (mole fraction) (in acetonitrile, 323.15 K): 0.375
- solubility (mole fraction) (in ethanol, 278.15 K): 0.0365
- solubility (mole fraction) (in ethanol, 283.15 K): 0.0435
- solubility (mole fraction) (in ethanol, 288.15 K): 0.0522
- solubility (mole fraction) (in ethanol, 293.15 K): 0.0617
- solubility (mole fraction) (in ethanol, 298.15 K): 0.0728
- solubility (mole fraction) (in ethanol, 303.15 K): 0.0858
- solubility (mole fraction) (in ethanol, 308.15 K): 0.1
- solubility (mole fraction) (in ethanol, 313.15 K): 0.116
- solubility (mole fraction) (in ethanol, 318.15 K): 0.136
- solubility (mole fraction) (in ethanol, 323.15 K): 0.156
- solubility (mole fraction) (in isopropanol, 278.15 K): 0.0583
- solubility (mole fraction) (in isopropanol, 283.15 K): 0.0664
- solubility (mole fraction) (in isopropanol, 288.15 K): 0.0756
- solubility (mole fraction) (in isopropanol, 293.15 K): 0.0861
- solubility (mole fraction) (in isopropanol, 298.15 K): 0.0979
- solubility (mole fraction) (in isopropanol, 303.15 K): 0.11
- solubility (mole fraction) (in isopropanol, 308.15 K): 0.125
- solubility (mole fraction) (in isopropanol, 313.15 K): 0.14
- solubility (mole fraction) (in isopropanol, 318.15 K): 0.155
- solubility (mole fraction) (in isopropanol, 323.15 K): 0.176
- solubility (mole fraction) (in water, 278.15 K): 2.41e-07
- solubility (mole fraction) (in water, 283.15 K): 3.17e-07
- solubility (mole fraction) (in water, 288.15 K): 4.02e-07
- solubility (mole fraction) (in water, 293.15 K): 5.23e-07
- solubility (mole fraction) (in water, 298.15 K): 6.68e-07
- solubility (mole fraction) (in water, 303.15 K): 8.38e-07
- solubility (mole fraction) (in water, 308.15 K): 1.07e-06
- solubility (mole fraction) (in water, 313.15 K): 1.32e-06
- solubility (mole fraction) (in water, 318.15 K): 1.65e-06
- solubility (mole fraction) (in water, 323.15 K): 2.06e-06
